From ChEMBL document CHEMBL4699649, “Design and Optimization of an Acyclic Amine Series of TRPV4 Antagonists by Electronic Modulation of Hydrogen Bond Interactions” (J Med Chem, 2020)
≈ marks a conversion by molar mass, not a printed value.

Experiments:
[1] = biological target: Transient receptor potential cation channel subfamily V member 4 (Homo sapiens, UniProt Q9HBA0); experiment: Antagonist activity at human TRPV4 expressed in BHK or HEK MSR2 cells assessed as inhibition of TRPV4 agonist GSK634775 (EC80)-induced response incubated for 10 mins; type: cell-based
Sequence of Transient receptor potential cation channel subfamily V member 4 (Q9HBA0 whole entry): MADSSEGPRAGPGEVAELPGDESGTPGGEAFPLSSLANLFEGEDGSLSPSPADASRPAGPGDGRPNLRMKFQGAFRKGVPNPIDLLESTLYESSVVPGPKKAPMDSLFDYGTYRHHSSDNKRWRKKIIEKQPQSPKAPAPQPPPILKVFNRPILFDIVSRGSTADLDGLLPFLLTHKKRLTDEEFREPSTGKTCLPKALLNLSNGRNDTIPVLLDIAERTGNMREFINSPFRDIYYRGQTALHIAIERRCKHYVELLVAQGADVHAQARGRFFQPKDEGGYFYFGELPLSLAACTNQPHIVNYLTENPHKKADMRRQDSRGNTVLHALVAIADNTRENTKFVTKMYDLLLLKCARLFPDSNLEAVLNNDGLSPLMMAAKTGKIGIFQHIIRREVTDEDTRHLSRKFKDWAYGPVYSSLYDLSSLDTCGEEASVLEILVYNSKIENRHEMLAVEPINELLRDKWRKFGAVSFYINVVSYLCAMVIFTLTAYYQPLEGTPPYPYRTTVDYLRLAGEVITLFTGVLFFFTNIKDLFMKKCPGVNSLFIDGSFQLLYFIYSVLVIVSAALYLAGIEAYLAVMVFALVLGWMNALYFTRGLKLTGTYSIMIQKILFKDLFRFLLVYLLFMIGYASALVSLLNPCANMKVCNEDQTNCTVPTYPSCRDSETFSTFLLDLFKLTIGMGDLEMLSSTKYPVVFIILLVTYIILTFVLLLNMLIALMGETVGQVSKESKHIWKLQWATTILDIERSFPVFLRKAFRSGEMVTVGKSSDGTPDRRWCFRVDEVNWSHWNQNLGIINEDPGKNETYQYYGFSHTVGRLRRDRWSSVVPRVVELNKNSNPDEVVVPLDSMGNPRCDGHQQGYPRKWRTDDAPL

[2] = Solubility of the compound by CLND assay; type: physicochemical
[3] = Distribution coefficient, log D of the compound by chromatographic method; type: physicochemical; details: octanol/water
[4] = MRT in iv dosed rat; type: ADME, organism-based; details: in vivo
[5] = Clearance in iv dosed rat; type: ADME, organism-based; details: in vivo
[6] = Dose normalized AUC in orally dosed rat; type: ADME, organism-based; details: in vivo, po
[7] = Oral bioavailability in rat; type: ADME, organism-based; details: in vivo
[8] = Fraction unbound in rat plasma; type: ADME, cell-free
Cytochrome P450 3A4 = Cytochrome P450 3A4 (Homo sapiens, UniProt P08684); experiment: Time dependent inhibition of recombinant human CYP3A4 expressed in bactosomes at 100 to 300 uM using 7-benzyloxy-4-(trifluoromethyl)-coumarin substrate in presence of NADPH-generating system incubated up to 15 mins by fluorescence based assay; type: ADME; details: recombinant enzyme, 0.25 h, dose 100-300 µM
Sequence of Cytochrome P450 3A4 (P08684 whole entry): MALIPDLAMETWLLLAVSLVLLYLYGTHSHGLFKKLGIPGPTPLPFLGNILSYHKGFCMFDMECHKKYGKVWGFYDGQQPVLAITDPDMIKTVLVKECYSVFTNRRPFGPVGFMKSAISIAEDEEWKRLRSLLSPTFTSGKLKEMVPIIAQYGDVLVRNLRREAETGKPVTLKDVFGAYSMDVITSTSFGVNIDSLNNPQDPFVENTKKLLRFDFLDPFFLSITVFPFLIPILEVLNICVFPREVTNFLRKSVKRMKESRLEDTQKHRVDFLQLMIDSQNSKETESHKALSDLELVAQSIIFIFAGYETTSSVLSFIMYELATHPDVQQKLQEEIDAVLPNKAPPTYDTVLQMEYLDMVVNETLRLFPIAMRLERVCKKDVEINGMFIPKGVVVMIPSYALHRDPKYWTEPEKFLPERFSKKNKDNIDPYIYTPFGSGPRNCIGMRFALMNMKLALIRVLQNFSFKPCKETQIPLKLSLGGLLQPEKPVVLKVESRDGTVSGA

[9] = Cmax in rat; type: ADME; details: in vivo
[10] = Volume of distribution at steady state in iv dosed rat; type: ADME, organism-based; details: in vivo, read-out: Vdss
[11] = Unbound clearance in iv dosed rat; type: ADME, organism-based; details: in vivo

SMILES: N#Cc1ccc(OCC2(O)CCN(S(=O)(=O)c3ccc(Cl)cc3Cl)CC2)cc1F
- IC50 [1]: 0.1 µM
- solubility kinetic [2]: 7.5 µM (≈ 3.44 µg/mL)

SMILES: N#Cc1ccc(OCC(O)CCNS(=O)(=O)c2ccc(Cl)cc2Cl)cc1F (centres undefined)
- chromatographic logD [3]: 5.2
- solubility kinetic [2]: 113 µM (≈ 49 µg/mL)

SMILES: Cc1cccc(OCC(N)CCNS(=O)(=O)c2ccc(Cl)cc2Cl)c1 (centres undefined)
- IC50 [1]: > 25.1 µM

SMILES: N#Cc1ccc(S(=O)(=O)NCC[C@H](N)COc2ccc(C#N)c(F)c2)c(C(F)(F)F)c1
- MRT [4]: 6.9 h
- clearance [5]: 4.7 mL/min/kg
- AUC/dose [6]: 3.7 µg·h/mL
- bioavailability [7]: 100%
- fraction unbound [8]: 0.015
- inhibition (INH) (Cytochrome P450 3A4): Active

SMILES: N#Cc1ccc(OC[C@@H](N)CCNS(=O)(=O)c2ccc(Cl)cc2Cl)cc1F
- chromatographic logD [3]: 4.5
- solubility kinetic [2]: 381 µM (≈ 165 µg/mL)
- Cmax [9]: 930 ng/mL
- MRT [4]: 7.5 h
- Vd [10]: 1.8 L/kg
- clearance [5]: 4.3 mL/min/kg
- AUC/dose [6]: 4.7 µg·h/mL
- bioavailability [7]: 85%
- fraction unbound [8]: 0.0084
- CL free [11]: 512 mL/min/kg
- inhibition (INH) (Cytochrome P450 3A4): Active

SMILES: C[C@](N)(CCNS(=O)(=O)c1ccc(C#N)cc1C(F)(F)F)COc1ccc(C#N)c(F)c1
- MRT [4]: 7 h
- clearance [5]: 37 mL/min/kg
- AUC/dose [6]: 0.6 µg·h/mL
- bioavailability [7]: 100%
- fraction unbound [8]: 0.064
- inhibition (INH) (Cytochrome P450 3A4): Not Active

SMILES: N#Cc1ccc(N)c(OC[C@@H](N)CCNS(=O)(=O)c2ccc(Cl)cc2Cl)c1
- MRT [4]: 2.3 h
- clearance [5]: 38 mL/min/kg
- AUC/dose [6]: 0.1 µg·h/mL
- bioavailability [7]: 22%
- fraction unbound [8]: 0.029
- inhibition (INH) (Cytochrome P450 3A4): Active

SMILES: N#Cc1ccc(OC[C@@H](N)CCNS(=O)(=O)c2ccc(C(F)(F)F)cc2)cc1F
- IC50 [1]: 0.631 µM

SMILES: COc1ccccc1S(=O)(=O)NCC[C@H](N)COc1ccc(C#N)c(F)c1
- IC50 [1]: 7.94 µM

SMILES: NC(CCNS(=O)(=O)c1ccc(Cl)cc1Cl)COc1cccc(Cl)c1 (centres undefined)
- IC50 [1]: 12.6 µM

SMILES: N#Cc1ccc(OC[C@@H](N)CCNS(=O)(=O)c2ccccc2C(F)(F)F)cc1F
- IC50 [1]: 0.0398 µM

SMILES: N#Cc1ccc(OC[C@@H](N)CCNS(=O)(=O)c2ccccc2OC(F)(F)F)cc1F
- IC50 [1]: 0.631 µM

SMILES: CN(CCC(O)COc1ccc(C#N)c(F)c1)S(=O)(=O)c1ccc(Cl)cc1Cl (racemic)
- IC50 [1]: 10 µM

SMILES: N#Cc1ccc(OCC(N)CCNS(=O)(=O)c2ccc(Cl)cc2Cl)cc1F (racemic)
- chromatographic logD [3]: 4.6
- solubility kinetic [2]: ≥ 390 µM

SMILES: N#Cc1ccc(OCC(N)CCNS(=O)(=O)c2cccc(Cl)c2)cc1F (racemic)
- IC50 [1]: 12.6 µM

SMILES: N#Cc1ccc(OCC(N)CCNS(=O)(=O)c2ccccc2)cc1F (racemic)
- IC50 [1]: 20 µM
